# Source: the supplement of paper PMC10307832
# Columns and labels:
# Experiment in all cases: relative viability (nuclei count vs DMSO), 5 days (fraction); higher = more cells survive
# [1] = compound: O=C(/C=C/c1cccnc1)NCCCCC1CCN(C(=O)c2ccccc2)CC1 [Daporinad] + CC(=O)c1c(C)c2cnc(Nc3ccc(N4CCNCC4)cn3)nc2n(C2CCCC2)c1=O [Palbociclib] (partner 0.5 µM)
# Outline: (§1)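 Each reported value is a median over duplicate plates. It expresses relative viability: treated-well nuclei count divided by vehicle-well nuclei count. Lung cancer cell lines in 1536-well plates were dosed by pin tool a day after seeding, alone with one drug or with a fixed anchor-drug dose plus five library-drug doses (not always all listed) in √10 steps, and nuclei were counted after 5 days.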
# [2] = compound: O=C(/C=C/c1cccnc1)NCCCCC1CCN(C(=O)c2ccccc2)CC1 [Daporinad] + Cc1nc(NC(=O)N2CCC[C@H]2C(N)=O)sc1-c1ccnc(C(C)(C)C(F)(F)F)c1 [Alpelisib] (partner 2 µM)
# Outline: as §1
# [3] = compound: O=C(/C=C/c1cccnc1)NCCCCC1CCN(C(=O)c2ccccc2)CC1 [Daporinad] + Cc1cc(Nc2cc(N3CCN(C)CC3)nc(Sc3ccc(NC(=O)C4CC4)cc3)n2)n[nH]1 [Tozasertib] (partner 0.1 µM)
# Outline: as §1
# [4] = compound: O=C(/C=C/c1cccnc1)NCCCCC1CCN(C(=O)c2ccccc2)CC1 [Daporinad] + N=C(N)NC(=N)NCCc1ccccc1 [Phenformin] (partner 250 µM)
# Outline: as §1
Cell Line,relative viability ([1]; first compound 0.0005 µM),relative viability ([1]; first compound 0.001581 µM),relative viability ([1]; first compound 0.005 µM),relative viability ([1]; first compound 0.01581 µM),relative viability ([2]; first compound 0.0005 µM),relative viability ([2]; first compound 0.001581 µM),relative viability ([2]; first compound 0.005 µM),relative viability ([2]; first compound 0.01581 µM),relative viability ([3]; first compound 0.0005 µM),relative viability ([3]; first compound 0.001581 µM),relative viability ([3]; first compound 0.005 µM),relative viability ([3]; first compound 0.01581 µM),relative viability ([4]; first compound 0.0005 µM),relative viability ([4]; first compound 0.001581 µM),relative viability ([4]; first compound 0.005 µM),relative viability ([4]; first compound 0.01581 µM)
NCI-H647,0.251,0.429,0.414,0.363,1.2,1.07,1.19,1.05,0.308,0.305,0.285,0.508,0.534,0.65,0.641,0.643
A-427,0.475,0.533,0.487,0.473,0.948,1.15,1.04,0.852,0.207,0.22,0.198,0.153,0.298,0.356,0.295,0.191
EMC-BAC-2,0.513,0.546,0.41,0.327,0.822,0.773,0.544,0.223,0.321,0.311,0.224,0.204,0.57,0.631,0.417,0.298
NCI-H460,0.153,0.191,0.236,0.169,0.54,0.64,0.502,0.566,0.43,0.386,0.6,0.56,0.472,0.575,0.533,0.523
LCLC-103H,0.526,0.556,0.503,0.518,1.01,1.01,1.02,1.06,0.548,0.5,0.514,0.525,0.351,0.341,0.358,0.327
HCC-827,0.419,0.486,0.5,0.435,1.04,1.03,1.06,0.969,0.428,0.445,0.513,0.446,0.442,0.478,0.421,0.461
NCI-H1355,0.413,0.412,0.384,0.504,0.719,0.873,1.02,0.856,0.519,0.558,0.58,0.631,0.454,0.506,0.542,0.508
NCI-H1734,0.361,0.404,0.356,0.328,0.703,0.736,0.695,0.582,0.283,0.262,0.285,0.263,0.437,0.496,0.479,0.299
HARA,0.258,0.263,0.308,0.238,0.702,0.955,0.638,0.176,0.117,0.105,0.109,0.0561,0.412,0.397,0.426,0.114
HCC-15,0.692,0.815,0.829,0.755,0.89,0.931,1.05,0.901,0.476,0.366,0.749,0.484,0.421,0.617,0.567,0.586
LCLC-97TM1,0.194,0.191,0.24,0.235,0.295,0.268,0.248,0.257,0.194,0.432,0.181,0.253,0.414,0.454,0.485,0.458
SK-LU-1,0.336,0.268,0.423,0.422,0.933,1.22,1.47,1.06,0.316,0.289,0.281,0.35,0.444,0.649,0.628,0.662
NCI-H1651,0.537,0.528,0.5,0.522,1.04,0.905,0.895,0.923,0.615,0.814,0.601,0.663,0.299,0.381,0.433,0.329
NCI-H1793,0.305,0.33,0.346,0.332,0.745,0.749,0.732,0.792,0.327,0.326,0.34,0.553,0.322,0.395,0.403,0.564
NCI-H2023,0.402,0.405,0.445,0.401,0.656,0.636,0.689,0.651,0.438,0.334,0.503,0.371,0.409,0.399,0.405,0.447
LC-2-ad,0.463,0.511,0.491,0.486,0.858,0.983,0.938,0.837,0.516,0.544,0.459,0.427,0.568,0.707,0.605,0.677
NCI-H1703,–,–,–,–,0.412,0.379,0.466,0.312,–,–,–,–,–,–,–,–
NCI-H1437,0.274,0.332,0.338,0.289,1,1.01,1.03,0.936,0.49,0.401,0.405,0.4,0.349,0.325,0.349,0.362
SW 1573,0.387,0.398,0.348,0.307,0.615,0.788,0.938,0.69,0.185,0.183,0.166,0.178,0.352,0.383,0.232,0.18
H3255,0.308,0.322,0.344,0.33,0.696,0.812,0.725,0.702,0.455,0.605,0.638,0.716,0.355,0.341,0.379,0.424

Cell Line,relative viability ([1]; first compound 0.0005 µM),relative viability ([1]; first compound 0.001581 µM),relative viability ([1]; first compound 0.005 µM),relative viability ([1]; first compound 0.01581 µM),relative viability ([2]; first compound 0.0005 µM),relative viability ([2]; first compound 0.001581 µM),relative viability ([2]; first compound 0.005 µM),relative viability ([2]; first compound 0.01581 µM),relative viability ([3]; first compound 0.0005 µM),relative viability ([3]; first compound 0.001581 µM),relative viability ([3]; first compound 0.005 µM),relative viability ([3]; first compound 0.01581 µM),relative viability ([4]; first compound 0.0005 µM),relative viability ([4]; first compound 0.001581 µM),relative viability ([4]; first compound 0.005 µM),relative viability ([4]; first compound 0.01581 µM)
Calu-6,–,–,–,–,0.934,0.96,1.09,0.519,–,–,–,–,–,–,–,–
NCI-H1792,0.637,0.694,0.654,0.681,0.715,0.761,0.339,0.752,–,–,–,–,–,0.582,0.222,0.68
NCI-H2170,0.351,0.39,0.394,0.381,0.811,0.825,0.795,0.839,0.694,0.742,0.668,0.849,0.379,0.424,0.415,0.458
NCI-H1650,0.321,0.413,0.415,0.334,–,–,–,–,0.387,0.44,0.461,0.275,0.406,0.55,0.416,0.223
NCI-H2087,0.215,0.242,0.224,0.243,1.07,1.36,1.14,0.928,0.262,0.229,0.339,0.221,0.405,0.601,0.535,0.496
HCC-366,0.451,–,0.432,0.37,0.44,0.503,0.542,0.616,0.103,0.0734,0.124,0.171,0.565,0.584,0.633,0.606
NCI-H838,0.254,0.258,0.29,0.199,0.973,1.03,1.06,0.512,0.25,0.322,0.229,0.177,0.551,0.799,0.542,0.415
LU99A,0.381,0.414,0.391,0.391,0.492,0.602,0.584,0.574,0.26,0.254,0.29,0.249,0.833,0.981,0.946,0.93
EBC-1,–,–,–,–,0.761,0.901,0.935,0.859,–,–,–,–,–,–,–,–
NCI-H2342,0.513,0.506,0.506,0.535,–,–,–,–,0.53,0.524,0.51,0.445,0.62,0.61,0.595,0.546
NCI-H1563,–,–,–,–,0.956,0.923,0.723,0.914,–,–,–,–,0.715,0.744,0.755,0.626
NCI-H1623,–,–,–,–,–,–,–,–,0.438,0.44,0.39,0.445,0.545,0.519,0.613,0.591
NCI-H1299,–,–,–,–,1.15,1.06,1.04,1.1,–,–,–,–,–,–,–,–
NCI-H522,1.06,1.06,0.746,0.908,–,–,–,–,0.599,0.533,0.484,0.433,0.654,0.758,0.695,0.682
A549,–,–,–,–,0.764,0.804,0.879,0.572,–,–,–,–,0.216,0.253,0.133,0.156
NCI-H1648,0.305,0.291,0.278,0.237,–,–,–,–,0.362,0.652,0.416,0.6,–,–,–,–
SW 900,0.432,–,0.573,0.501,–,–,–,–,0.638,0.473,0.735,0.346,0.518,0.674,0.798,0.595
IA-LM,–,–,–,–,0.865,0.983,0.967,0.58,–,–,–,–,–,–,–,–
ChaGo-K-1,0.914,0.908,0.786,0.327,–,–,–,–,0.261,0.225,0.216,0.192,0.513,0.532,0.434,0.274
NCI-H596,–,–,–,–,0.539,0.551,0.617,0.372,0.879,0.929,1.1,0.65,0.627,0.749,0.774,0.746
